{
  "source": "patent US8980922B2",
  "about": "“5-HT4 receptor agonists for the treatment of dementia” (Raqualia Pharma Inc., priority 2010, dated 2015)",
  "key": {"Male IGS rats [1]": {"system": "Male IGS rats", "assay": "Rat Novel Object Recognition Study", "type": "in vivo", "procedure": "Rat Novel Object Recognition Study (Method Referred: PNAS, 101 (2003) 853-858)\nMale IGS rats (9 weeks-old, Charles River Laboratories Japan, Inc.) were used in this study. Compound A and donepezil hydrochloride (reference substance) were orally administered at 60 min before training trial and before retention trial. Number of animals per group was 15. Open-field box (40×40×40 cm) with sawdust covering its floor was used in this study. As for the training trials, the animals were allowed to explore two identical objects (A1 and A2) for 3 min. The objects are plastic “LEGO bricks” that vary in shape, color, and size. […]\nExploration of an object was defined as pointing the nose to the object at a distance of <1 cm and/or touching it with the nose. DVD images were analyzed by an observer who was […] of the treatment condition. To assess cognitive performance, the time spent exploring the familiar (TA3) and novel (TB) object, and discrimination index (DI; (TB−TA3)/(TB+TA3)) was analyzed. […] To assess the overall levels of exploratory performance, total time spent exploring the both objects was analyzed.\nFor Compound A, discrimination index was analyzed using Bartlett's test followed by Dunnett's multiple comparison test. […] For donepezil, discrimination index was analyzed using F-test, followed by Student's t-test. […]"}, "Male IGS rats [2]": {"system": "Male IGS rats", "assay": "Spontaneous alteration test in rats (scopolamine-induced impairment)", "type": "in vivo, rat", "procedure": "Spontaneous Alteration Test in Rats (Method Referred: Eur. J. Pharmacol., 236 (1993) 341-345)\nMale IGS rats (6 weeks-old, Charles River Laboratories Japan, Inc.) were used in this study. The scopolamine solution or saline was administered intraperitoneally 30 minutes after the administration of the test substance or vehicle. Thirty minutes after the injection, the rat was placed at the end of one arm toward to the end of the arm and was allowed to move freely through the maze for 8-min test session. The sequence of arm entries was recorded manually. Alteration was defined as entry into all three arms on consecutive choices. The percent alteration as an indicator of spontaneous alteration performance was calculated as (number of alterations/total number of arm entries minus 2)×100.\nThe effect of Compound A on the scopolamine-induced impairment of spontaneous alteration performance in rats was investigated. In the percent alterations, the values on saline- and scopolamine-treated groups were 75.2% and 53.9%, respectively."}, "Tg2576 mice": {"system": "Tg2576 mice", "assay": "Abeta reduction in Tg2576 mice", "type": "in vivo", "conditions": "1 and 10 mg/kg BID orally, three weeks; soluble plus insoluble Abeta, ELISA", "procedure": "Female Tg2576 mice that express the human amyloid precursor protein (APP) gene with the Swedish mutation (APPSWE) were purchased from Taconic Farms (catalog #001349-TF).\nTg2576 mice (31-week old at the beginning of the experiment) were dosed orally twice a day (BID) for 3 weeks with 0.1, 1, or 10 mg/kg Compound A in the vehicle consisting of 0.5% methylcellulose and 0.1% Tween 80. Mice were euthanized three hours after the last dose. Brain tissues were collected and homogenized in 5-volumes of ice-cold TBS buffer (50 mM Tris-HCl) containing 1% CHAPS and protease inhibitors. The homogenates were centrifuged at 14,000 g for 10 minutes at 4° C., and the resulting supernatants were collected as soluble pool of Abeta. The pellets were dissolved in the starting volume of 5 M guanidine in TBS buffer and the resulting homogenates were collected as insoluble pool of Abeta. Abeta1-40 and Abeta1-42 were quantified using commercially available ELISA kits according to the manufacture's instructions. Measurements were performed in duplicate. The final values of Abeta in the brain were expressed as nanograms per gram wet brain weight. Total Abeta levels were obtained by adding the values of the soluble and insoluble Abeta levels."}, "[3]": {"system": "rat hippocampus (Hip) ACh level", "assay": "Increase of hippocampus ACh release in rats (microdialysis)", "type": "in vivo", "conditions": "direct injection (perfusion via dialysis probe, 120 min) into rat Hip; 100 nM eserine in aCSF", "procedure": "Increase of Hippocampus ACh Release in Rats\nEffects of Compound A on rat hippocampus (Hip) ACh level were tested using microdialysis in Male Wistar rats. One day before the start of the experiments, rats were anesthetized and guide cannula was implanted in the dorsal Hip. One day after surgery, a dialysis probe was inserted through a guide cannula in Hip and perfused with artificial cerebrospinal fluid (aCSF) containing 148 mM NaCl, 2.7 mM KCl, 1.2 mM CaCl2, 0.85 mM MgCl2, together with 100 nM eserine. After a 1 h equilibration period, sample collection began. Outflow fractions were collected every 20 min. After six stable baseline fractions were collected, the perfusate was replaced to aCSF containing Compound A with 100 nM eserine for 120 min, and then it was switched again to aCSF with 100 nM eserine alone. Dialysis fractions were then analyzed using high performance liquid chromatography with an electrochemical detection system. Isopropyl homocholine was used as internal standard. The amount of ACh in each dialysate sample was calculated from the peak height ratio of ACh/IPHC. ACh content was expressed as a percent of baseline calculated from the average of three samples preceding drug infusion.\nACh content was expressed as a percent of baseline calculated from the average of three samples preceding drug infusion."}, "Abeta": {"system": "Abeta", "conditions": "NPL 13; cited from earlier work"}},
  "note": "Counter-ions that a name gives are not always drawn.",
  "data": [
    {"smiles": "CC(C)n1c(=O)n(C(=O)NCC2CCN(CC3(O)CCOCC3)CC2)c2ccccc21", "note": "[Compound A, N-((1-((4-hydroxytetrahydro-2H-pyran-4-yl)methyl)piperidin-4-yl)methyl)-3-isopropyl-2-oxo-2,3-dihydro-1H-benzo[d]imidazole-1-carboxamide]", "values": [
      {"measurement": "discrimination index", "setting": "Male IGS rats [1]; Compound A 0.1, 0.3, 1 mg/kg, orally 60 min before training and retention trial, vs vehicle (*p<0.05, **p<0.01, Dunnett)", "value": "statistically significant compared to that in vehicle-treated group"},
      {"measurement": "percent alteration", "setting": "Male IGS rats [2]; 0.1 and 3 mg/kg, scopolamine-induced impairment", "value": "showed a tendency to improve without statistical significance"},
      {"measurement": "percent alteration", "setting": "Male IGS rats [2]; doses of 0.3 and 1 mg/kg, scopolamine-induced impairment, vs vehicle-treated group (p<0.01)", "value": "significantly increased the percent alterations"},
      {"measurement": "total brain Abeta1-40 levels", "setting": "Tg2576 mice", "value": "significantly decreased total brain Abeta1-40 levels"},
      {"measurement": "total brain Abeta1-42 levels", "setting": "Tg2576 mice", "value": "dose-dependently and substantially decreased total brain Abeta1-42 levels"},
      {"measurement": "ACh concentration (percent of baseline)", "setting": "[3]", "value": 187, "unit": "%"}
    ]},
    {"smiles": "CC(C)n1c(=O)c(C(=O)NCCCN2CCCCC2)c(O)c2ccsc21", "note": "[PRX-03140]", "values": [
      {"measurement": "Abeta reduction in animal models", "setting": "Abeta", "value": "Abeta reducing tendency while those efficacies were not significant suppressions"}
    ]},
    {"smiles": "COc1cc2c(cc1OC)C(=O)C(CC1CCN(Cc3ccccc3)CC1)C2", "note": "(stereo not drawn) [donepezil, donepezil hydrochloride, reference compound]", "values": [
      {"measurement": "discrimination index", "setting": "Male IGS rats [1]; donepezil-treated group, orally, vs vehicle (p<0.05, Student's t-test)", "value": "statistically significant compared to that in vehicle-treated group"}
    ]},
    {"smiles": "CN1[C@@H]2C[C@@H](OC(=O)[C@H](CO)c3ccccc3)C[C@H]1[C@@H]1O[C@@H]12", "note": "[scopolamine, reference compound]", "values": [
      {"measurement": "percent alteration", "setting": "Male IGS rats [2]; scopolamine-treated group (intraperitoneal), saline-treated group 75.2%, p<0.01", "value": 53.9, "unit": "%"}
    ]}
  ]
}
